Assay results published in patent US20080045514A1 (Cytovia, Inc., priority 2006, published 2008).
Structures can show the parent of a compound that is named as a salt.

Key:
Type in all cases: cell-based
[1] = test system: human colon carcinoma cell line HCT116; assay: Caspase cascade activation (EC50), HCT116; settings: Homo sapiens, HCT-116; HCT116 cells; caspase cascade activation; read-out: caspase potency (EC50) HCT116
Protocol: (§1) Human breast cancer cell lines T-47D, human hepatocellular carcinoma cell line SNU398, human colon carcinoma cell line HCT116, human cancer cell line H1299, human Burkitt's lymphoma cell line Namalwa, human lymphoma cell line Raji, and human B cell lymphoblastoid cell line Ramos were grown according to media component mixtures designated by American Type Culture Collection+10% FCS (Invitrogen Corporation), in a 5% CO2-95% humidity incubator at 37° C. T-47D and H1299 cells were maintained at a cell density between 50 and 80% confluency at a cell density of 0.1 to 0.6×10^6 cells/mL. Cells were harvested at 600×g and resuspended at 0.65×10^6 cells/mL into appropriate media+10% FCS. An aliquot of 22.5 μL of cells was added to a well of a 384-well microtiter plate containing 2.5 μL of a 10% DMSO in RPMI-1640 media solution containing 0.16 to 100 μM of 3-(2-chlorophenyl)-6-(3,4-methylenedioxyphenyl)-7H-[1,2,4]triazolo[3,4-b][1,3,4]thiadiazine or other test compound (0.016 to 10 μM final). An aliquot of 22.5 μL of cells was added to a well of a 384-well microtiter plate containing 2.5 μL of a 10% DMSO in RPMI-1640 media solution without test compound as the control sample. The samples were mixed by agitation and then incubated at 37° C. for 48 h in a 5% CO2-95% humidity incubator. After incubation, the samples were removed from the incubator and 25 μL of a solution containing 14 μM of N—(Ac-DEVD)-N′-ethoxycarbonyl-R110 (SEQ ID No.:1) fluorogenic substrate (Cytovia, Inc.; WO99/18856), 20% sucrose (Sigma), 20 mM DTT (Sigma), 200 mM NaCl (Sigma), 40 mM Na PIPES buffer pH 7.2 (Sigma), and 500 μg/mL lysolecithin (Calbiochem) was added. The samples were mixed by agitation and incubated at room temperature. Using a fluorescent plate reader (Model SPECTRAfluor Plus, Tecan), an initial reading (T=0) was made approximately 1-2 min after addition of the substrate solution, employing excitation at 485 nm and emission at 530 nm, to determine the background fluorescence of the control sample. After the 3 h incubation, the samples were read for fluorescence as above (T=3 h). Calculation: The Relative Fluorescence Unit values (RFU) were used to calculate the sample readings as follows: RFU(T=3H)−Control RFU(T=0)=Net RFU(T=3h) The activity of caspase cascade activation was determined by the ratio of the net RFU value for 3-(2-chlorophenyl)-6-(3,4-methylenedioxyphenyl)-7H-[1,2,4]triazolo[3,4-b][1,3,4]thiadiazine (Example P) or other test compound to that of control samples. The EC50 (nM) was determined by a sigmoidal dose-response calculation (Prism 3.0, GraphPad Software Inc.).

[2] = test system: human lymphoma cell line Raji; assay: Caspase cascade activation (EC50), Raji; settings: Homo sapiens, RAJI cells, read-out: caspase potency (EC50) RAJI
Protocol: as §1

[3] = test system: human breast cancer cell line T-47D; assay: Caspase cascade activation (EC50), T-47D; settings: Homo sapiens; T47D cells; caspase cascade activation; read-out: caspase potency (EC50) T47D
Protocol: as §1

[4] = test system: human B cell lymphoblastoid cell line Ramos; assay: Caspase cascade activation (EC50), Ramos; settings: Homo sapiens, RAMOS cells, read-out: caspase potency (EC50) RAMOS
Protocol: as §1

[5] = test system: human Burkitt's lymphoma cell line Namalwa; assay: Caspase cascade activation (EC50), Namalwa; settings: Homo sapiens, Burkitts lymphoma cell; Namalwa cells; caspase cascade activation; read-out: caspase potency (EC50) Namalwa
Protocol: as §1

[6] = test system: human hepatocellular carcinoma cell line SNU398; assay: Caspase cascade activation (EC50), SNU398; settings: Homo sapiens, SNU-398; SNU398 cells; caspase cascade activation; read-out: caspase potency (EC50) SNU398
Protocol: as §1

| EC50 [1] | EC50 [2] | EC50 [3] | EC50 [4] | EC50 [5] | EC50 [6] | SMILES |
| --- | --- | --- | --- | --- | --- | --- |
| > 10000 nM | 568 nM | 683 nM | 711 nM | 580 nM | 599 nM | Cc1ccc(-c2nnc3n2N=C(c2ccc4c(c2)OCO4)CS3)cc1 [C, 3-(4-Methylphenyl)-6-(3,4-methylenedioxyphenyl)-7H-[1,2,4]triazolo[3,4-b][1,3,4]thiadiazine] |
| – | 133 nM | – | 78 nM | 71 nM | – | COc1ccc(C2=Nn3c(nnc3-c3cc(Cl)c(OC)c(OC)c3)SC2)cc1 [Example 5, 3-(3-Chloro-4,5-dimethoxyphenyl)-6-(4-methoxyphenyl)-7H-[1,2,4]triazolo[3,4-b][1,3,4]thiadiazine] |
| > 10000 nM | > 10000 nM | 855 nM | 7650 nM | > 10000 nM | 5430 nM | Oc1ccc(C2=Nn3c(nnc3-c3ccc(Cl)cc3)SC2)cc1 [Example 6, 3-(4-Chlorophenyl)-6-(4-hydroxyphenyl)-7H-[1,2,4]triazolo[3,4-b][1,3,4]thiadiazine hydrobromide] |
| – | 3370 nM | – | 2650 nM | 2560 nM | – | COc1ccccc1-c1nnc2n1N=C(c1ccc(OCCN(C)C)cc1)CS2 [Example 9, 3-(2-Methoxyphenyl)-6-(4-(2-dimethylaminoethoxy)phenyl)-7H-[1,2,4]triazolo[3,4-b][1,3,4]thiadiazine] |
| – | 157 nM | – | 72 nM | 71 nM | – | Cc1ccc(C2=Nn3c(nnc3-c3ccccc3Cl)SC2)cc1 [Example 11, 3-(2-Chlorophenyl)-6-(4-methylphenyl)-7H-[1,2,4]triazolo[3,4-b][1,3,4]thiadiazine hydrochloride] |
| 188 nM | 270 nM | 534 nM | 258 nM | 214 nM | 122 nM | CCN(CC)c1ccc(C2=Nn3c(nnc3-c3ccc(OC)c(OC)c3)SC2)cc1 [Example 22, 6-(4-Diethylaminophenyl)-3-(3,4-dimethoxyphenyl)-7H-[1,2,4]triazolo[3,4-b][1,3,4]thiadiazine] |
| > 10000 nM | > 10000 nM | > 10000 nM | > 10000 nM | > 10000 nM | > 10000 nM | COc1ccc(-c2nnc3n2N=C(c2ccc([N+](=O)[O-])cc2)CS3)cc1OC [Example 28, 3-(3,4-Dimethoxyphenyl)-6-(4-nitrophenyl)-7H-[1,2,4]triazolo[3,4-b][1,3,4]thiadiazine] |
| 5280 nM | – | 4720 nM | 545 nM | – | 2540 nM | COc1ccc(-c2nnc3n2N=C(c2ccc(N)cc2)CS3)cc1OC [Example 29, 6-(4-Aminophenyl)-3-(3,4-dimethoxyphenyl)-7H-[1,2,4]triazolo[3,4-b][1,3,4]thiadiazine] |
| – | > 10000 nM | – | 4860 nM | > 10000 nM | – | COc1ccc(-c2nnc3n2N=C(c2ccc(NC(C)=O)cc2)CS3)cc1OC [Example 32, 6-(4-Acetamidophenyl)-3-(3,4-dimethoxyphenyl)-7H-[1,2,4]triazolo[3,4-b][1,3,4]thiadiazine] |
| – | 2400 nM | – | 2680 nM | 2730 nM | – | COc1ccc(-c2nnc3n2N=C(c2ccc4[nH]c(=O)oc4c2)CS3)c(OC)c1 [Example 33, 6-(2,3-Dihydro-2-oxobenzo[d]oxazol-6-yl)-3-(2,4-dimethoxyphenyl)-7H-[1,2,4]triazolo[3,4-b][1,3,4]thiadiazine] |
| > 10000 nM | 5560 nM | 5630 nM | 5420 nM | > 10000 nM | 5080 nM | CCc1nnc2n1N=C(c1ccc(OC)cc1)CS2 [Example J2, 3-Ethyl-6-(4-methoxyphenyl)-7H-[1,2,4]triazolo[3,4-b][1,3,4]thiadiazine] |
| > 10000 nM | 5470 nM | 5470 nM | 5840 nM | 5530 nM | 5560 nM | COc1ccc(C2=Nn3c(nnc3-c3cccc(OC(C)C)c3)SC2)cc1 [Example K2, 3-(3-Isopropyloxyphenyl)-6-(4-methoxyphenyl)-7H-[1,2,4]triazolo[3,4-b][1,3,4]thiadiazine] |
| 5330 nM | – | 3650 nM | – | 2830 nM | 3780 nM | COc1ccccc1-c1nnc2n1N=C(c1ccccc1)CS2 [Example K3] |
| > 10000 nM | 5190 nM | 4330 nM | 5150 nM | 5240 nM | 4770 nM | c1cc2c(cc1C1=Nn3c(nnc3C3CCCCC3)SC1)OCO2 [Example M2, 3-Cyclohexyl-6-(3,4-methylenedioxyphenyl)-7H-[1,2,4]triazolo[3,4-b][1,3,4]thiadiazine] |
| 124 nM | – | 268 nM | – | 68 nM | 82 nM | COc1ccc(C2=Nn3c(nnc3-c3cccc(Cl)c3Cl)SC2)cc1 [Example M3] |
| > 10000 nM | 540 nM | 542 nM | 514 nM | – | 501 nM | COc1ccc(-c2nnc3n2N=C(c2ccc4c(c2)OCO4)CS3)cc1OC [Example O1, 3-(3,4-Dimethoxyphenyl)-6-(3,4-methylenedioxyphenyl)-7H-[1,2,4]triazolo[3,4-b][1,3,4]thiadiazine] |
| 665 nM | 641 nM | 1420 nM | 597 nM | 635 nM | 433 nM | CCOc1ccc(C2=Nn3c(nnc3-c3cccc(C)c3)SC2)cc1 [Example O2, 3-(3-Methylphenyl)-6-(4-ethoxyphenyl)-7H-[1,2,4]triazolo[3,4-b][1,3,4]thiadiazine] |
| 2620 nM | – | 1300 nM | – | 585 nM | 765 nM | COc1cccc(C2=Nn3c(nnc3-c3ccc(Cl)cc3Cl)SC2)c1 [Example O3] |
| > 10000 nM | > 1000 nM | 669 nM | 628 nM | – | 2640 nM | c1ccc(-c2nnc3n2N=C(c2ccc4c(c2)OCO4)CS3)cc1 [Example P1, 3-Phenyl-6-(3,4-methylenedioxyphenyl)-7H-[1,2,4]triazolo[3,4-b][1,3,4]thiadiazine] |
| 1470 nM | 901 nM | 2160 nM | 660 nM | 880 nM | 473 nM | CCOc1ccc(C2=Nn3c(nnc3-c3ccc(F)cc3)SC2)cc1 [Example P2, 3-(4-Fluorophenyl)-6-(4-ethoxyphenyl)-7H-[1,2,4]triazolo[3,4-b][1,3,4]thiadiazine] |
| 551 nM | 484 nM | 277 nM | 264 nM | 250 nM | 257 nM | Fc1ccccc1-c1nnc2n1N=C(c1ccc3c(c1)OCO3)CS2 [Example Q1, 3-(2-Fluorophenyl)-6-(3,4-methylenedioxyphenyl)-7H-[1,2,4]triazolo[3,4-b][1,3,4]thiadiazine] |
| > 10000 nM | – | > 10000 nM | – | 292 nM | > 10000 nM | COc1ccccc1-c1nnc2n1N=C(c1ccc(Cl)c(Cl)c1)CS2 [Example Q3] |
| 700 nM | 569 nM | 1660 nM | 339 nM | 546 nM | 271 nM | COc1ccc(C2=Nn3c(nnc3-c3ccc(F)cc3)SC2)cc1 [Example S2] |
| – | 4860 nM | – | 2580 nM | 2580 nM | – | COc1ccccc1-c1nnc2n1N=C(c1ccc([N+](=O)[O-])cc1)CS2 [Example X2] |
